ChEMBL document CHEMBL3507680, “University of Dundee, Gates Library screen for HepG2 cell viability”

Assay: Human HepG2 cell viability assay in 384 well format
Assay type: toxicity, cell-based
Design: dose 125 nL, time 70.5 hour; cytotoxicity at 70.5 h: concentration not given beside the values
Conditions: HepG2 cells, read-out: Inhibition

Going from `CC(=O)N(Cc1ncc(C(C)C)o1)C1CCN(Cc2nccn2C)C1` (configuration not stated) to `CC(=O)N(Cc1ncc(C)o1)C1CCN(Cc2csc(C)n2)C1` (configuration not stated), the cytotoxicity at 70.5 h falls from -0.826% to -1.47%.

Compared with `CC(=O)Nc1ccc(CNC(=O)CNCc2sc(C)nc2C)cc1`, `COCC(=O)NCc1ccc(-c2ncncc2C(=O)N(C)C)cc1` is lower in cytotoxicity at 70.5 h: 6.71% for the first, -2.25% for the second.

Going from `CS(=O)(=O)N1CCC2(CCN(C(=O)c3cccs3)CC2)CC1` to `CN(C)CCN1CCCC12CCN(C(=O)c1cnccn1)CC2`, the cytotoxicity at 70.5 h rises from -8.9% to 6.16%.

Compared with `O=C(c1cnc(C2CC2)s1)N1CCCC(n2cccn2)C1` (configuration not stated), `O=C(Cc1ccc2c(c1)CCC2)N1CCCC(n2cccn2)C1` (configuration not stated) is lower in cytotoxicity at 70.5 h: -2.13% for the first, -6.54% for the second.

Going from `Cc1cc(C)n(CCNC(=O)c2ncc[nH]2)c(=O)n1` to `C=C(C)COc1cccc(C(=O)NCCCc2nnn[nH]2)c1`, the cytotoxicity at 70.5 h falls from -3.22% to -12.4%.

Going from `Cc1cc2c(=O)n3c(nc2s1)CCN(C(=O)c1cn(C)nc1C)CC3` to `Cc1nn(CC(=O)N2CCN(c3cnccn3)CC2)c(C)c1Cl`, the cytotoxicity at 70.5 h falls from -1.48% to -9.18%.

Compared with `CCSCCn1c(=O)n(Cc2ccc(F)cc2)c2ncc(C(=O)O)cc21`, `O=C1CC2(CCCNC2)C(=O)N1Cc1ccc(F)cc1` (configuration not stated) is lower in cytotoxicity at 70.5 h: -4.52% for the first, -10.9% for the second.

First: CC1CN(C)CCN1C(=O)c1cnc2c(cnn2C2CCCC2)c1 (configuration not stated)
Second: Cn1cc(C(=O)NCc2cn3c(n2)CN(CC2CCCC2)CC3)cn1
The cytotoxicity at 70.5 h of the first is higher: -2.54% for the first, -112% for the second.

Going from `CCCN1CCCC2(CCN(Cc3cncn3C3CCCC3)C2)C1=O` (configuration not stated) to `CC(C)n1cc(CN2CCCN(C(=O)CC3CCCCC3)CC2)cn1`, the cytotoxicity at 70.5 h rises from -8.03% to -0.435%.

Going from `Cc1cc(CNC(=O)N2CCc3ccccc3C2CO)c(C)o1` (configuration not stated) to `CC(NC(=O)N1CCc2ccccc2C1)c1nncn1C` (configuration not stated), the cytotoxicity at 70.5 h falls from -5.72% to -13.5%.

Going from `COC(=O)N1CCC(Nc2cccc(F)c2C(C)=O)C1` (configuration not stated) to `COc1nn(C)cc1C(=O)NCC(=O)NCc1cccnc1`, the cytotoxicity at 70.5 h rises from -9.32% to -2.92%.

Going from `CS(=O)(=O)N1CC[C@@H]2[C@@H]1CCN2Cc1ccc2c(c1)OCO2` to `Cc1nc(CN2CC[C@H]3[C@H]2CCN3c2ncccn2)cs1`, the cytotoxicity at 70.5 h falls from -0.795% to -5.71%.

Compared with `Cc1ccccc1OCC(=O)N1CC[C@]2(C[C@@H](OCC3CC3)CO2)C1`, `O=C(NCC1CC1)C1CN(C(=O)c2ccncc2)CC12CCOCC2` (configuration not stated) is higher in cytotoxicity at 70.5 h: -1.4% for the first, 3.6% for the second.

Going from `O=C(c1ccoc1)N1CCO[C@@H]2CNC[C@@H]21` to `CCc1nccn1C1CCCN(C(=O)c2ccc3[nH]c(=O)[nH]c3c2)C1` (configuration not stated), the cytotoxicity at 70.5 h rises from -1.42% to 29%.

First: Nc1cc2c(nn1)CCN(C(=O)CCCC1CCCCC1)C2
Second: O=C(c1ccccn1)N1C[C@@H]2CC[C@H](C1)N(C(=O)CCC1CCCC1)C2
The cytotoxicity at 70.5 h of the first is lower: -13.1% for the first, -1.69% for the second.

First: CNC(=O)NC(C)c1nc(-c2ccc(Br)cc2)no1 (configuration not stated)
Second: CCc1nnc(CNc2ccc(CC(=O)N3CCSCC3)cc2)o1
The cytotoxicity at 70.5 h of the first is lower: 9.87% for the first, 13.8% for the second.

Compared with `NC(=O)NC(=O)CN1CCN(c2nccs2)CC1`, `Cc1cccc(N2CCN(C(=O)CN3CCC(C(N)=O)CC3)CC2)c1` is higher in cytotoxicity at 70.5 h: -11.6% for the first, -2.32% for the second.

Going from `Cc1nn(C)c(N2CCOCC2)c1CNC1CCc2ccccc2C1` (configuration not stated) to `O=C(Cn1ccc2ccccc21)NCc1cc(N2CCOCC2)ncn1`, the cytotoxicity at 70.5 h falls from 16.6% to -1.81%.

First: CC(=O)NCC(=O)N1Cc2cnc(CC(C)C)nc2C1
Second: O=C(NCCCC(=O)N1Cc2ccccc2C1)NCc1cccnc1
The cytotoxicity at 70.5 h of the first is lower: -5.57% for the first, -0.375% for the second.

First: CC(C(=O)NCCN1CCCCC1)n1cncn1 (configuration not stated)
Second: CNC(=O)C1CCN(C(=O)CCn2cccn2)CC1
The cytotoxicity at 70.5 h of the first is lower: -12.5% for the first, 26.7% for the second.

Compared with `c1cnc(-c2nn3c(CN4CCOCC4)nnc3s2)cn1`, `COCCN1CCN(c2ccc(C)nn2)Cc2cccnc21` is higher in cytotoxicity at 70.5 h: -10.2% for the first, -7.28% for the second.

Compared with `O=C1[C@@H]2CN(c3ncc(Cl)cc3F)C[C@]2(C(=O)O)CN1CC1CC1`, `C[C@@H]1CN(c2ccc(C#N)cn2)CC[C@@]1(O)C1CCOCC1` is higher in cytotoxicity at 70.5 h: -5.98% for the first, 27.2% for the second.

Going from `O=C1CC(C(=O)Nc2nnc(-c3ccoc3)[nH]2)c2ccccc2N1` (configuration not stated) to `Cn1c(Cn2ncc(N3CCCCC3)cc2=O)nc2ccccc21`, the cytotoxicity at 70.5 h rises from 0.202% to 44.3%.

Going from `CN(Cc1cscn1)C(=O)C(c1ccccc1)N1CCSCC1` (configuration not stated) to `Nc1nc2nc(C3CCCN(C(=O)c4cscn4)C3)ccc2s1` (configuration not stated), the cytotoxicity at 70.5 h falls from 21.5% to 9.1%.

Going from `CSc1ccc(CN2C[C@@H]3CC[C@@](O)(c4ccc(C)cn4)[C@@H]3C2)cc1` to `CN(CC1CC1)c1ccc2ccc(C(=O)NCCc3ccccc3)cn12`, the cytotoxicity at 70.5 h falls from 41.8% to -12.6%.

Going from `CCCN(Cc1nnnn1C1CC1)CC1COc2ccccc2O1` (configuration not stated) to `CCOCc1nc(-c2cccc(OC)c2OC)n(C2CCN(C)CC2)n1`, the cytotoxicity at 70.5 h falls from 0.609% to -1.78%.

Compared with `N#Cc1cccc(OCC(=O)N(Cc2ccsc2)C2CC2)c1`, `CN(CCOCC1CC1)C(=O)Nc1ccc([S+](C)[O-])cc1` (configuration not stated) is higher in cytotoxicity at 70.5 h: -12% for the first, -0.588% for the second.

First: CSC(C)C(=O)NCc1ccnc(N2CCN(C)CC2)c1 (configuration not stated)
Second: Cc1cnc(N2CCc3ncnc(N4CCN(C)CC4)c3CC2)nc1
The cytotoxicity at 70.5 h of the first is lower: -7.04% for the first, -2.07% for the second.

Work on `CS(=O)(=O)NCc1cn2c(n1)CN(C(=O)c1ccc[nH]1)CC2` yielded a cytotoxicity at 70.5 h of -9.01%.
